≈ marks a conversion by molar mass, not a printed value. Counter-ions that a name gives are not always drawn. Starred links: 1 amine or outer side, 2 acyl side, 3 side chain; linkers in the order of their positions; H or OH if unused. Non-standard residues stand in square brackets, D forms with d. Residues, ends and D or L forms follow the SMILES beside them. *: point of attachment. X1 = C[C@@H](N[*:1])P(=O)(O)CCC(=O)[*:2]; Cbz = O=C(OCc1ccccc1)*; CH2Cl = ClC*
What was measured:
[1] = target: T1, Sortase A (Staphylococcus aureus) (UniProt Q9S446); assay: Binding affinity to Staphylococcus aureus SrtA assessed as kinact/ki
T1 sequence (whole entry): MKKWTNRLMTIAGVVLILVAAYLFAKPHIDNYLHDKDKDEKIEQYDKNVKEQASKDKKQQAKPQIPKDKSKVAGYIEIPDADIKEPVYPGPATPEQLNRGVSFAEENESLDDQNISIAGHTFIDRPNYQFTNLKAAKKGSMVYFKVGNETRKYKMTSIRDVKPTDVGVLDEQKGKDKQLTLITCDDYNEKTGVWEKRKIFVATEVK

[2] = system: Staphylococcus aureus; assay: Antibacterial activity against Staphylococcus aureus SA113 by microbroth dilution assay; format: functional
[3] = target: T2, Sortase A (Staphylococcus aureus, UniProt Q9S446); assay: Inhibition of Staphylococcus aureus SrtA using EDANS-Dabcyl as substrate by FRET assay
T2 sequence (Q9S446 whole entry): T1 sequence (whole entry)

[4] = system: Staphylococcus aureus; assay: Antibacterial activity against Staphylococcus aureus; format: functional
[5] = target: T2, Sortase A; assay: Inhibition of Staphylococcus aureus SrtA catalytic domain (60 to 206 residues) using Abz-LPETGDap(Dnp)-NH2 as substrate preincubated for 1 hr followed by substrate addition and measured immediately by FRET assay
[6] = target: T2, Sortase A; assay: Inhibition of Staphylococcus aureus SrtA with 24 residues truncated from N-terminus using Abz-LPATG-Dap as substrate
[7] = target: T2, Sortase A; assay: Inhibition of Staphylococcus aureus SrtA
[8] = target: T2, Sortase A; assay: Inhibition of C-terminal 6His-tagged recombinant Staphylococcus aureus SrtA with 1 to 59 residues truncated from N-terminus expressed in Escherichia coli BL21 (DE3) using dabcyl-QALPETGEE-edans as substrate preincubated for 1 hr followed by substrate addition and measured for 1 hr by FRET assay
[9] = system: Staphylococcus aureus; assay: Inhibition of biofilm formation in Staphylococcus aureus ATCC 29213 incubated for 24 hrs by crystal violet staining based analysis; format: functional, organism-based; details: ATCC 29213, 24 h
[10] = target: T2, Sortase A; assay: Inhibition of recombinant Staphylococcus aureus SrtA deltaN59 using Dabcyl-[…]-Edans as substrate preincubated for 20 mins followed by substrate addition and measured after 1 hr by fluorescence based analysis
[11] = target: T2, Sortase A; assay: Inhibition of recombinant Staphylococcus aureus ATCC 6538p SrtA expressed in Escherichia coli TOP10 using Dabcyl-QALPETGEE-Edans as substrate incubated for 1 hr by fluorometric analysis
[12] = target: T2, Sortase A; assay: Inhibition of Staphylococcus aureus SrtA (60 to 206 residues) using Abz-LPETG-Dap(Dnp)-NH2 as substrate incubated for 1 hr by FRET assay
[13] = target: T2, Sortase A; assay: Inhibition of recombinant Staphylococcus aureus SrtA using Abz-LPETG-Dap(Dnp) as substrate
[14] = target: T2, Sortase A; assay: Binding affinity to Staphylococcus aureus SrtA (60 to 206 residues) using Dabcyl-Gln-Ala-Leu-Pro-Glu-Thr-Gly-Glu-Glu-Edans as substrate incubated for 12 hrs by fluorescence based analysis
[15] = target: T1, Sortase A (Staphylococcus aureus); assay: Binding affinity to Staphylococcus aureus SrtA (60 to 206 residues) using Dabcyl-Gln-Ala-Leu-Pro-Glu-Thr-Gly-Glu-Glu-Edans as substrate assessed as first order rate constant of inactivation incubated for 12 hrs by fluorescence based analysis
[16] = target: T1, Sortase A (Staphylococcus aureus); assay: Binding affinity to Staphylococcus aureus SrtA (60 to 206 residues) using Dabcyl-Gln-Ala-Leu-Pro-Glu-Thr-Gly-Glu-Glu-Edans as substrate assessed as second order rate constant of inhibition, kinact/ki incubated for 12 hrs by fluorescence based analysis
[17] = target: T2, Sortase A; assay: Inhibition of recombinant Staphylococcus aureus SrtA using DabcylQALPETGEE-Edans as substrate by FRET assay
[18] = target: T1, Sortase A (Staphylococcus aureus); assay: Binding affinity to wild type recombinant Staphylococcus aureus SrtA using Dabcyl-Gln-Ala-Leu-Pro-Glu-Thr-Gly-Glu-Glu-Edans as substrate assessed as first order rate constant of inactivation by FRET assay
[19] = target: T1, Sortase A (Staphylococcus aureus); assay: Binding affinity to wild type recombinant Staphylococcus aureus SrtA using Dabcyl-Gln-Ala-Leu-Pro-Glu-Thr-Gly-Glu-Glu-Edans as substrate assessed as second order rate constant of inhibition, kinact/Ki by FRET assay
[20] = target: T2, Sortase A; assay: Binding affinity to wild type recombinant Staphylococcus aureus SrtA using Dabcyl-Gln-Ala-Leu-Pro-Glu-Thr-Gly-Glu-Glu-Edans as substrate by FRET assay
[21] = system: Staphylococcus aureus; assay: Antibacterial activity against Staphylococcus aureus ATCC 6538p assessed as inhibition of bacterial growth incubated overnight by spectrophotometer; format: functional
[22] = target: T1, Sortase A (Staphylococcus aureus); assay: Inhibition of Staphylococcus aureus SrtA expressed in Escherichia coli BL21 (DE3) cells using Abz-LPETG-Dap(Dnp) as substrate assessed as kinact/ki

CSSc1ccccc1C(=O)N1CCC[C@H]1C(=O)NC12CC3CC(CC(C3)C1)C2
Ratio [1]: 5.75 10^4/M/min
MIC [2]: 116 µM (≈ 50 µg/mL)

O=C(/C=C/c1ccc(O)cc1)CC(=O)/C=C/c1ccc(O)cc1 [BISDEMETHOXYCURCUMIN]
IC50 [3]: 103 µM
MIC [4]: > 543 µM

O=c1cc(CO)oc(C(Nc2ccccn2)c2cccc(F)c2)c1O (centres undefined)
MIC [4]: > 1580 µM
Ratio [1]: 2.4 10^3/M/min

CCOc1c(S)cnn(-c2ccccc2)c1=O
IC50 [5]: 35 µM

CCSSc1ccccc1C(=O)NCC(=O)NC12CC3CC(CC(C3)C1)C2
Ratio [1]: 5.79 10^4/M/min
MIC [2]: 7.74 µM (≈ 3.13 µg/mL)

O=S(=O)(O)c1cccc(-c2nn3c(-c4ccncc4)nnc3s2)c1
IC50 [6]: 9.3 µM

CCOc1c(SSc2cnn(-c3cccc(F)c3)c(=O)c2OCC)cnn(-c2cccc(F)c2)c1=O
IC50 [5]: 0.16 µM

O=C1N[C@H](c2c[nH]c3cc(Br)ccc23)CN=C1c1c[nH]c2ccccc12
IC50 [3]: 83.2 µM

CCOc1c(SSc2cnn(-c3cccc(OC)c3)c(=O)c2OCC)cnn(-c2cccc(OC)c2)c1=O
IC50 [5]: 0.62 µM

COc1cc(/C=C/C(=O)O)ccc1O [FERULATE]
MIC [4]: > 5750 µM
IC50 [7]: 1320 µM

O=c1cc(CO)oc(C(Nc2ccccn2)c2ccc(F)cc2)c1O (centres undefined)
MIC [4]: > 1580 µM
Ratio [1]: 1.4 10^3/M/min

CCOC(=O)/C(=N\Nc1ccc(Cl)c(Cl)c1)C(=O)c1cc(C)nn1CC
IC50 [8]: > 200 µM
IC50 [9]: 1.7 µM

CC(C)C[C@H](N)C(=O)N1CCC[C@H]1C(=O)N[C@@H](CCCNC(=N)N)C(=O)N[C@@H](CC(=O)O)C(=O)N[C@@H](C)C(=O)O (H-LPRDA-OH)
IC50 [10]: 10.6 µM

COc1cc(/C=C/C(=O)CC(=O)/C=C/c2ccc(O)c(OC)c2)ccc1O [CURCUMIN]
MIC [4]: > 543 µM

Cc1cc(C(=O)/C(=N/Nc2ccc(Cl)c(Cl)c2)C(=O)O)no1
IC50 [8]: > 200 µM
IC50 [9]: 0.8 µM

O=c1c(O)c(-c2cc(O)c(O)c(O)c2)oc2cc(O)cc(O)c12 [MYRICETIN]
IC50 [11]: 44 µM

Clc1ccc(C2Nc3cccc4cccc(c34)N2)cc1
IC50 [12]: 89 µM

C[C@@H]1O[C@@H](OC2=C(c3ccc(O)c(O)c3)Oc3cc(O)cc(O)c3[C@@H]2O)[C@H](O)[C@H](O)[C@H]1O
IC50 [3]: 71.8 µM

O=C(O)COc1ccccc1C1Nc2cccc3cccc(c23)N1
IC50 [12]: 47.2 µM

COc1cc(/C=C/C(=O)CC(=O)/C=C/c2ccc(O)cc2)ccc1O
IC50 [3]: 70.3 µM
MIC [4]: > 543 µM

O=c1cc(CO)oc(C(Nc2ccccn2)c2ccc(C(F)(F)F)cc2)c1O (centres undefined)
MIC [4]: > 1300 µM
Ratio [1]: 1.7 10^3/M/min

O=c1c(OCCCO)c(SSc2cnn(-c3cccc(F)c3)c(=O)c2OCCCO)cnn1-c1cccc(F)c1
IC50 [5]: 0.02 µM
Ratio [1]: 1.8 10^4/M/min

CC(C)C[C@H](NC(=O)[C@H](C)NC(=O)[C@@H](N)Cc1ccc(O)cc1)C(=O)N1CCC[C@H]1C(=O)N[C@@H](CCC(=O)O)C(=O)N[C@H](C)P(=O)(O)CCC(=O)N[C@@H](CCC(=O)O)C(=O)N[C@@H](CCC(=O)O)C(N)=O (H-YALPE[X1]EE-NH2)
IC50 [13]: 10000 µM

Clc1ccccc1-c1nn2c(-c3ccncc3)nnc2s1
IC50 [6]: 37.7 µM

O=C(O)/C=C/c1ccc(O)c(O)c1 [CAFFEIC ACID]
MIC [4]: > 5750 µM
IC50 [7]: 860 µM

CC(C)C[C@H](NC(=O)OCc1ccccc1)C(=O)N1CCC[C@H]1C(=O)N[C@@H](C)C(=O)N[C@@H](/C=C/S(=O)(=O)c1ccccc1)[C@@H](C)O
Ki [14]: 9 µM
Kinact [15]: 4 10^-4/min
Kinact [16]: 0.74 M⁻¹ s⁻¹
Ratio [16]: 44.4 M⁻¹ min⁻¹

O=[N+]([O-])c1ccc(C2Nc3cccc4cccc(c34)N2)cc1
IC50 [12]: 80 µM

CSSc1ccccc1C(=O)NCC(=O)NC12CC3CC(CC(C3)C1)C2
Ratio [1]: 5.93 10^4/M/min
MIC [2]: 16 µM (≈ 6.25 µg/mL)

COc1ccc2c(c1OC)C(=O)O[C@@H]2[C@H]1c2cc3c(cc2CCN1C)OCO3 [HYDRASTINE]
IC50 [17]: > 209 µM

CC(C)C[C@H](NC(=O)OCc1ccccc1)C(=O)N1CCC[C@H]1C(=O)N[C@@H](C)C(=O)N[C@H](C(=O)CCl)[C@@H](C)O (Cbz-LPAT-CH2Cl)
Kinact [18]: 1.1 10^-2/min
Ratio [19]: 5.3 10^4/M/min
kinact/Ki [19]: 883 M⁻¹ s⁻¹
Ki [20]: 0.2 µM

CC(=O)/C(=N/Nc1ccc(Cl)c(Cl)c1)C(=O)O
MIC [4]: > 270 µM
IC50 [8]: 50 µM

CCSSc1ccccc1C(=O)NCC(=O)NCC1CCCCC1
Ratio [1]: 7.13 10^4/M/min

O=c1c(OCCO)c(SSc2cnn(-c3ccccc3)c(=O)c2OCCO)cnn1-c1ccccc1
IC50 [5]: 0.22 µM

CCSSc1ccccc1C(=O)N[C@H](CC(=O)O)C(=O)Nc1cccc(Oc2ccccc2)c1
Ratio [1]: 8.21 10^4/M/min

CCn1nc(C)cc1C(=O)/C(=N/Nc1ccc(Cl)c(Cl)c1)C(=O)O
IC50 [8]: > 200 µM

O=c1c(O)c(-c2ccc(O)c(O)c2)oc2cc(O)cc(O)c12 [QUERCETIN]
IC50 [11]: 52.7 µM

COc1ccc(-c2coc3cc(O)ccc3c2=O)cc1 [FORMONONETIN]
IC50 [11]: 74.9 µM
MIC [21]: > 478 µM

O=C(/C=C/c1ccc(O)c(O)c1)O[C@@H]1C[C@](O)(C(=O)O)C[C@@H](O)[C@H]1O [CHLOROGENIC ACID]
IC50 [3]: 95.6 µM
MIC [4]: 2900 µM (≈ 1030 µg/mL)

CC(=O)/C(=N/Nc1ccc([N+](=O)[O-])cc1)C(=O)O
MIC [4]: > 270 µM
IC50 [8]: 57 µM

CCSSc1ccccc1C(=O)NCC(=O)Nc1ccc(F)cc1
Ratio [1]: 6.14 10^4/M/min

COc1ccc(C(Nc2ccccn2)c2oc(CO)cc(=O)c2O)cc1 (centres undefined)
MIC [4]: > 1440 µM
Ratio [1]: 1.8 10^3/M/min

COc1ccc(-c2cc(=O)c3c(O)cc(O)cc3o2)cc1 [ACACETIN]
MIC [4]: > 3600 µM
IC50 [7]: 128 µM

CCOc1c(SSc2cnn(-c3cccc(C(=N)N)c3)c(=O)c2OCC)cnn(-c2cccc(C(=N)N)c2)c1=O
IC50 [5]: 0.54 µM
Ratio [1]: 3.6 10^4/M/min

CCSSc1ccccc1C(=O)NCC(=O)N(C1CCCCC1)C1CCCCC1
Ratio [1]: 6.39 10^4/M/min

COc1cc2c(cc1O)OC(c1ccccc1)CC2=O (centres undefined)
IC50 [11]: 96.1 µM
MIC [21]: > 4700 µM

CCSSc1ccccc1C(=O)NCC(=O)Nc1cccc(Oc2ccccc2)c1
Ratio [1]: 7.24 10^4/M/min

O=c1c(OCCCO)c(SSc2cnn(-c3ccccc3)c(=O)c2OCCCO)cnn1-c1ccccc1
IC50 [5]: 0.84 µM

Cc1cc(C(=O)/C(=N/Nc2c(F)cccc2F)C(=O)O)no1
MIC [4]: > 200 µM
IC50 [8]: 76.5 µM
IC50 [9]: 29 µM

c1cc(-c2nnc3sc(-c4ccc5[nH]cnc5c4)nn23)ccn1
IC50 [6]: 17 µM

O=c1cc(CO)oc(C(Nc2ccccn2)c2ccsc2)c1O (centres undefined)
MIC [4]: > 1550 µM
Ratio [1]: 0.7 10^3/M/min

C=CS(=O)(=O)c1ccccc1
Ratio [22]: 20.1 M⁻¹ min⁻¹

O=c1c(OCCO)c(SSc2cnn(-c3cccc(F)c3)c(=O)c2OCCO)cnn1-c1cccc(F)c1
IC50 [5]: 0.41 µM

COc1ccc2cc3[n+](cc2c1OC)CCc1cc2c(cc1-3)OCO2 [BERBERINE SULFATE]
IC50 [17]: 26.5 µM

COc1c(O)c2c(c3c1O[C@@]1(O)C(C)(C)[C@H](C)O[C@@]31O)C(=O)C(C)=CC2=O
IC50 [7]: 23.6 µM

Reference: ChEMBL document CHEMBL5226340, “Chemical Biology of Sortase A Inhibition: A Gateway to Anti-infective Therapeutic Agents” (J Med Chem, 2021)
